According to patent US20110129883A1, “INACTIVATION OF GENES OF THE MEP PATHWAY” (BIOAGENCY AG, priority 2001, published 2011):

Tested on: E. coli transformed with the synthetic operon
Type: cell-based

O=CN(O)CCCP(=O)(O)O [fosmidomycin] was tested, and the “bacterial growth under fosmidomycin” value was “at a reduced rate and died”.
